Columns and labels:
[1] = biological target: Bromodomain and PHD finger-containing protein 3 (Homo sapiens, UniProt Q9ULD4); assay: Inhibition of BRPF3 (unknown origin) incubated for 60 mins by alphascreen competitive assay
[2] = biological target: T1, Bromodomain-containing protein 1 (Homo sapiens) (UniProt O95696); assay: Binding affinity to BRPF2 (unknown origin) assessed as change in enthalpy at 12 uM by Isothermal titration calorimetry
T1 sequence (whole entry): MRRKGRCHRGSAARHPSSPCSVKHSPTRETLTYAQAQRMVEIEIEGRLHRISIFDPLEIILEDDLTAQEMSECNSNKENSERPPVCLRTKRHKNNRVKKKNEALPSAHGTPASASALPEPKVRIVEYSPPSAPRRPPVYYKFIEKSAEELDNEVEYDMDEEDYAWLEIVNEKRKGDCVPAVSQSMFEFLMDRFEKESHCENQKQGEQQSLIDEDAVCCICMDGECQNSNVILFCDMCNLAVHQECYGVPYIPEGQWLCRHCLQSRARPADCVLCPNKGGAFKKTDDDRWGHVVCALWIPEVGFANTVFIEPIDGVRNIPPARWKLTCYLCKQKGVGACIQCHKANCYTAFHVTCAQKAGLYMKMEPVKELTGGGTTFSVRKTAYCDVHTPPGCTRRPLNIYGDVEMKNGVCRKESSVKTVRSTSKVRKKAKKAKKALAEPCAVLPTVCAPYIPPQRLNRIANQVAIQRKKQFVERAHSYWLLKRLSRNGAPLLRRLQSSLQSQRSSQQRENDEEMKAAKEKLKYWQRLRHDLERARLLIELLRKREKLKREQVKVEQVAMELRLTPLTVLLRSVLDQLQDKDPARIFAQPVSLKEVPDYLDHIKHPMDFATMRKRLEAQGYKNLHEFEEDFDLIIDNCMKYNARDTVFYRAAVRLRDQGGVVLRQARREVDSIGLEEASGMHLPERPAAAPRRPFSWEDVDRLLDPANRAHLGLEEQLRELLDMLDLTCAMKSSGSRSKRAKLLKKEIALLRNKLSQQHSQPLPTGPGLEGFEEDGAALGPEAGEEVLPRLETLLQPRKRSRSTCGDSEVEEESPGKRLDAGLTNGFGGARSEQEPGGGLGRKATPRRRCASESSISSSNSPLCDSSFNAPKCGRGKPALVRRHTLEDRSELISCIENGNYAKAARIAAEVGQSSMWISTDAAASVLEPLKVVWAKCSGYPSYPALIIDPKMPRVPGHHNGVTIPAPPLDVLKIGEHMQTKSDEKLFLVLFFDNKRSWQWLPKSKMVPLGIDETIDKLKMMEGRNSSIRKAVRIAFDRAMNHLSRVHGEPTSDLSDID

Peregrin (Homo sapiens) = biological target: T2, Peregrin (Homo sapiens) (UniProt P55201); assay: Binding affinity to […] (unknown origin) assessed as change in gibbs free energy at 17 uM by Isothermal titration calorimetry
T2 sequence (whole entry): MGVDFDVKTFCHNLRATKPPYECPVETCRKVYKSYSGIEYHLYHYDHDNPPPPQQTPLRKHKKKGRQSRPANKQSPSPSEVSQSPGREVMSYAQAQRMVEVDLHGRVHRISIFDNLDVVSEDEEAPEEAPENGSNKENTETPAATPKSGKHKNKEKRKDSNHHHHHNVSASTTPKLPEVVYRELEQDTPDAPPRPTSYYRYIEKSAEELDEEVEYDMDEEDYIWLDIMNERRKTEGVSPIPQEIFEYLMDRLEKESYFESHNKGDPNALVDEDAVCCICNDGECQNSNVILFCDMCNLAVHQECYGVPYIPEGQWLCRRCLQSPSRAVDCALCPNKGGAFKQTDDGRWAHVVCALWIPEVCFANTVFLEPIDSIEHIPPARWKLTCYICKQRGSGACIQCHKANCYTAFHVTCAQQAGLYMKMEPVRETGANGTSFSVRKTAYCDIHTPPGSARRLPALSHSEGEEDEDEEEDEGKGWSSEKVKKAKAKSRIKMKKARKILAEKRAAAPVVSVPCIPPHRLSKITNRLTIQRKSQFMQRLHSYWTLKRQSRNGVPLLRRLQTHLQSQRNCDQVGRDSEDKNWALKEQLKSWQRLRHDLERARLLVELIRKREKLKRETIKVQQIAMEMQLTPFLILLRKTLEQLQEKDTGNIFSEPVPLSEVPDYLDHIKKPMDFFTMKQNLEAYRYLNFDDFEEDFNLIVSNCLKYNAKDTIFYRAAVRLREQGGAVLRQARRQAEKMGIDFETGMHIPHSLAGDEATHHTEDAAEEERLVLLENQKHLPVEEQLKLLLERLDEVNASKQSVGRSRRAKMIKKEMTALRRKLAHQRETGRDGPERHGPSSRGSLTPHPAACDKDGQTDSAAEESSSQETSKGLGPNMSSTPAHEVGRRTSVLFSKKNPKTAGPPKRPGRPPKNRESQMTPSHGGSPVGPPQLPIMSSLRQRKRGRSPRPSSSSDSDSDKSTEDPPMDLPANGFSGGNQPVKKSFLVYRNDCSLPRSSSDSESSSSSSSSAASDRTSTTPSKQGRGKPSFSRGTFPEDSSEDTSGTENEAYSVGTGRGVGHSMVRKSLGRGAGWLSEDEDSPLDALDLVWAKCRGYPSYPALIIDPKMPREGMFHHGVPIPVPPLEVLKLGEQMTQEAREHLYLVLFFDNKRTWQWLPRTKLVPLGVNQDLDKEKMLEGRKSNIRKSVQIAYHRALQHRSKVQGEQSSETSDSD

[3] = biological target: Histamine H1 receptor (Homo sapiens) (UniProt P35367); assay: Binding affinity to H1 receptor (unknown origin) assessed as specific binding at 10 uM relative to control
[4] = biological target: Adenosine receptor A1 (Homo sapiens) (UniProt P30542); assay: Binding affinity to A1 receptor (unknown origin) assessed as specific binding at 10 uM relative to control
[5] = biological target: Beta-2 adrenergic receptor (Homo sapiens) (UniProt P07550); assay: Binding affinity to Beta2 (unknown origin) assessed as specific binding at 10 uM relative to control
[6] = biological target: Transcription intermediary factor 1-alpha (Homo sapiens, UniProt O15164)
Homo sapiens [7] = species: Homo sapiens; conditions: dose 10.0 µM
[8] = biological target: T1, Bromodomain-containing protein 1 (Homo sapiens); conditions: dose 10.0 µM
Homo sapiens [9] = species: Homo sapiens; conditions: dose 10.0 µM; remark: listed apart in the source
[10] = biological target: Nucleosome-remodeling factor subunit BPTF (Homo sapiens) (UniProt Q12830); conditions: dose 10.0 µM
[11] = biological target: Protein polybromo-1 (Homo sapiens) (UniProt Q86U86); conditions: dose 10.0 µM
Homo sapiens [12] = species: Homo sapiens; conditions: dose 10.0 µM; remark: listed apart in the source
Homo sapiens [13] = species: Homo sapiens; conditions: dose 10.0 µM; remark: listed apart in the source
[14] = biological target: Bromodomain and WD repeat-containing protein 1 (Homo sapiens) (UniProt Q9NSI6); conditions: dose 10.0 µM

Chain of Adenosine receptor A1 (Homo sapiens) (P30542 whole entry): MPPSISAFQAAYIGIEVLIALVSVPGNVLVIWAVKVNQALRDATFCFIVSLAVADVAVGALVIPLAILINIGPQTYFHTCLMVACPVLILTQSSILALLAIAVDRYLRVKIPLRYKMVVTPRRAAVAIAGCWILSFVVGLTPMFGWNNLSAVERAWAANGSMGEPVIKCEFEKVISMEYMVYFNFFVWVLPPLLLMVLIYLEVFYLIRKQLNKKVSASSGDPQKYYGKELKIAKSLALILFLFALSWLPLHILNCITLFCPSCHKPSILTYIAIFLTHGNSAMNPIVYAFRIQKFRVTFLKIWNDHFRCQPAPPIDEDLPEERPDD
Chain of Histamine H1 receptor (Homo sapiens) (P35367 whole entry): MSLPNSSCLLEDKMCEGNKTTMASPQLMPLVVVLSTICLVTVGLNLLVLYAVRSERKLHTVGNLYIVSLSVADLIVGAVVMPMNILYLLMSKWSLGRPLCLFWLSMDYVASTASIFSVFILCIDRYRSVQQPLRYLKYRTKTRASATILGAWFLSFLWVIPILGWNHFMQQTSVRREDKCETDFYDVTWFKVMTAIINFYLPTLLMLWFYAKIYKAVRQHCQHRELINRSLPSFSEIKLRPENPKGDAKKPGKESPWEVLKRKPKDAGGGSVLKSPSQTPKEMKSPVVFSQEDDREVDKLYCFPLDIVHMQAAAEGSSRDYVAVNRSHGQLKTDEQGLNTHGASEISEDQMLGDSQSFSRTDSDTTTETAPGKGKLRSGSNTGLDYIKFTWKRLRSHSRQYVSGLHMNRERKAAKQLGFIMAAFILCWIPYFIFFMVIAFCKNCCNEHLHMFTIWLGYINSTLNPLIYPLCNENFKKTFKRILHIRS
Chain of Bromodomain and PHD finger-containing protein 3 (Q9ULD4 whole entry): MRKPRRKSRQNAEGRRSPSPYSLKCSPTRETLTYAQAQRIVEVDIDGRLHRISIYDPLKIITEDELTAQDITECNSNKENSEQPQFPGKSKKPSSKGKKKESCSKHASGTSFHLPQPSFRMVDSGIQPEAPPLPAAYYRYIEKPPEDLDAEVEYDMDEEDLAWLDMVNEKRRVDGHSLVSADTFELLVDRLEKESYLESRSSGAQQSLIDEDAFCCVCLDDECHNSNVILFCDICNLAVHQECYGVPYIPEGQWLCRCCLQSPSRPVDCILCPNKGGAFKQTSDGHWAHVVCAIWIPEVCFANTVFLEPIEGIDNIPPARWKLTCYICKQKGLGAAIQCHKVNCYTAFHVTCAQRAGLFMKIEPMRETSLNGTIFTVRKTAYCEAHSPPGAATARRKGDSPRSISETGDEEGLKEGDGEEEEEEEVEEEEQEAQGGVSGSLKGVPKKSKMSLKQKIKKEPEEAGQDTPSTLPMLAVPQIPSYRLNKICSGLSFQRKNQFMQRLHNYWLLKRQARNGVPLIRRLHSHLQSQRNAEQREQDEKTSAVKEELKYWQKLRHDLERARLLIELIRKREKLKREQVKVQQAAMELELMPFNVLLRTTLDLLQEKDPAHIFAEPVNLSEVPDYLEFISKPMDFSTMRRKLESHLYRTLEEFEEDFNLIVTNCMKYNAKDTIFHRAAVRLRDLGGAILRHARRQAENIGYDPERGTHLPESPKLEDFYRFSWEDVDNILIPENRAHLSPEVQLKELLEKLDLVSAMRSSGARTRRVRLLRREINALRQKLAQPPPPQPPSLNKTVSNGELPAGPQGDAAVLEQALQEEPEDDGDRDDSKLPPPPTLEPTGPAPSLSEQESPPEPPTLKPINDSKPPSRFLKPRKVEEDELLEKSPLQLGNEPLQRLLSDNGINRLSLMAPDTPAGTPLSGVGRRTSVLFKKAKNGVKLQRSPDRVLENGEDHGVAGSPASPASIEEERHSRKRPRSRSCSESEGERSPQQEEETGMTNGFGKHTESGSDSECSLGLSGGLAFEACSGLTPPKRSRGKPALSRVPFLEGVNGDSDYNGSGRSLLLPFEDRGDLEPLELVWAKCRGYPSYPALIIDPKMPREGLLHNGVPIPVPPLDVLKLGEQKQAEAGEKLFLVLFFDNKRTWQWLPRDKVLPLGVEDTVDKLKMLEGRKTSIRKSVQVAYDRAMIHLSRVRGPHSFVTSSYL
Chain of Beta-2 adrenergic receptor (Homo sapiens) (P07550 whole entry, looked up): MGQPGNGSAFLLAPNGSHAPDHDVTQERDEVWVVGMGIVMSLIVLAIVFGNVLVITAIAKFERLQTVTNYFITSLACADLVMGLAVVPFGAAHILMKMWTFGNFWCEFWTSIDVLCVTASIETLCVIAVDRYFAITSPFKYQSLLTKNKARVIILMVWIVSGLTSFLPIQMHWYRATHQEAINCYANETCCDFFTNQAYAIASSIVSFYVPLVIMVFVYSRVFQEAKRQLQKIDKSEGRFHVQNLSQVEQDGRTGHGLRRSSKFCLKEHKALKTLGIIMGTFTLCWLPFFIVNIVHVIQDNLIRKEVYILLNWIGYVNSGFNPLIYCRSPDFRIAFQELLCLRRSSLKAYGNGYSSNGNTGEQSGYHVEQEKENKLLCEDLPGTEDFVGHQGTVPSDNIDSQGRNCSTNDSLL
Chain of Protein polybromo-1 (Homo sapiens) (Q86U86 whole entry): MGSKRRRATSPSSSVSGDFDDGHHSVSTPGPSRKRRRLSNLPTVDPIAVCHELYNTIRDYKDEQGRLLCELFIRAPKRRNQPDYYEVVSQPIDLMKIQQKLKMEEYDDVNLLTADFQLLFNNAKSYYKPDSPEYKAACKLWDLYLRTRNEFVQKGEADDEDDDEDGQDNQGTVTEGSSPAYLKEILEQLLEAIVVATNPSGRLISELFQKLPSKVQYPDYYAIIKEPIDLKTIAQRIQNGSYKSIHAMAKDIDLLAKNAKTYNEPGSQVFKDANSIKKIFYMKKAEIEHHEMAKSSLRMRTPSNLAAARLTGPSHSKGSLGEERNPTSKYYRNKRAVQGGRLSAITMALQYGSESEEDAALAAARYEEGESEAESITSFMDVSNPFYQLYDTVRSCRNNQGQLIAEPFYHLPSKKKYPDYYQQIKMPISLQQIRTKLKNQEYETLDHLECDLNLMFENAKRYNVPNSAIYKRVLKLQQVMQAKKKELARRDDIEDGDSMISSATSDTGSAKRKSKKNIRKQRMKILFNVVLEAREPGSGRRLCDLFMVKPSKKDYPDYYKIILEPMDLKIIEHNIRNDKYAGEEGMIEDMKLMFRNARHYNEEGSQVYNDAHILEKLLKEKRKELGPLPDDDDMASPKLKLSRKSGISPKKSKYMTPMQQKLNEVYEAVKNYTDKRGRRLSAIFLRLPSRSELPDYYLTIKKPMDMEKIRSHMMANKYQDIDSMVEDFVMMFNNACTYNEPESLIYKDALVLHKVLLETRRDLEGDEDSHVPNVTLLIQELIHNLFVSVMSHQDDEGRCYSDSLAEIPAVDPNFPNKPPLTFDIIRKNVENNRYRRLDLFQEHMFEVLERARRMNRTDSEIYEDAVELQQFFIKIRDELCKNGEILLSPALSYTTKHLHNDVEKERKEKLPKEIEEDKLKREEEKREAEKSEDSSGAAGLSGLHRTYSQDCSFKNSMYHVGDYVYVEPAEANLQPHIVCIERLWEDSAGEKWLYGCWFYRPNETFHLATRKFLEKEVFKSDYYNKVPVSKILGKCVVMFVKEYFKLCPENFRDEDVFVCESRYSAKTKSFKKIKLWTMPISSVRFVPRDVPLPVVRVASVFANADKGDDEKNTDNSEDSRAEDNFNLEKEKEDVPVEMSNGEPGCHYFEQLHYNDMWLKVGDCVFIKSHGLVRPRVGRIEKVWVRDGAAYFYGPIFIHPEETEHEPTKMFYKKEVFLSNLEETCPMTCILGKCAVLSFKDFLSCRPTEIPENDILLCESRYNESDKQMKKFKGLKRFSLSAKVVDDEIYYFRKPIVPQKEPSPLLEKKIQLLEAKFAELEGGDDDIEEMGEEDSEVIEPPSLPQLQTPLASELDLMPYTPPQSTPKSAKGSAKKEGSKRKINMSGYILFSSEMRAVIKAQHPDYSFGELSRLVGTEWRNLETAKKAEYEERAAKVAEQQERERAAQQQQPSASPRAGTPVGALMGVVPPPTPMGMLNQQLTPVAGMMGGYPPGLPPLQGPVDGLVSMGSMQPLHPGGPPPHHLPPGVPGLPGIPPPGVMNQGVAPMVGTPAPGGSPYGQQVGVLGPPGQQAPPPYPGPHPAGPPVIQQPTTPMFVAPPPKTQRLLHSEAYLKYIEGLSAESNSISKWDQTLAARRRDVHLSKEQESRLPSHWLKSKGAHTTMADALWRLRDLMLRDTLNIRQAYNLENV

IC50 [1]: Not Active | deltaH [2]: -9.5 kcal/mol | deltaG (Peregrin (Homo sapiens)): -9.24 kcal/mol | Activity [3]: 96.8% | Activity [4]: 19.8% | Activity [5]: 93.6% | IC50 [6]: > 10 µM | ΔTm (Homo sapiens [7]): 0.5 °C | ΔTm [8]: 3.1 °C | ΔTm (Homo sapiens [9]): 3.3 °C | ΔTm [10]: 0.9 °C | ΔTm [11]: 0.2 °C | ΔTm (Homo sapiens [12]): -0.4 °C | ΔTm (Homo sapiens [13]): 0.2 °C | ΔTm [14]: 1 °C
SMILES: COc1cc2c(cc1NS(=O)(=O)c1ccc(Br)cc1C)n(C)c(=O)n2C

Reference: ChEMBL document CHEMBL5715956, “Selective Targeting of Bromodomains of the Bromodomain-PHD Fingers Family Impairs Osteoclast Differentiation” (ACS Chem Biol, 2017)
